Test results: patent USRE47193E1, “Selectively substituted quinoline compounds” (EISAI R&D MANAGEMENT CO., LTD., priority 2013, dated 2019)

System: NZB/W lupus disease model
Experiment: NZBxNZW (NZB/W) lupus disease model
Assay type: in vivo, mouse
Conditions: for mortality: 33, 100 or 300 mg/kg QD PO, 21 weeks of treatment; for impact on anti-dsDNA titers: after 17 weeks of dosing, at 46 weeks of age
Method: FIG. 2A through FIG. 2C show results of testing ER-899742 in the NZBxNZW strain (abbreviated hereafter as NZBWF1/J or NZB/W) lupus disease model. Figure Legend: Female NZBWF1/J mice were received at 5 weeks of age, baseline bleeds were performed, and mice were monitored for disease progression by following anti-dsDNA titers. At 27 weeks of age, mice were randomized into groups with equivalent median anti-dsDNA titers and treated at 29 weeks of age with Vehicle (Veh; 0.5% methyl-cellulose) alone or 33, 100, or 300 mg/kg once-a-day orally (QD PO). At 46 weeks of age after 17 weeks of treatment mice were bled and tested for anti-dsDNA titers. All mice were sacrificed at 50 weeks of age (21 weeks of compound treatment). (FIG. 2A) Just prior to termination at 50 weeks of age (following 21 weeks of treatment), urine was collected from individual mice, and the Urinary Albumin Creatinine Ratio (UACR, proteinuria) was determined for each animal as an indirect measure of kidney function. (FIG. 2B) Timecourse of mortality observed in this study for the highest and lowest dose groups. […] (FIG. 2C) Impact of treatment on anti-dsDNA titers after 17 weeks of dosing, at 46 weeks of age.
FIG. 4A through FIG. 4C show results of testing ER-899464 in the NZB/W disease model in the same experiment as FIG. 2A. Figure Legend: (FIG. 4A) Just prior to termination at 50 weeks of age (following 21 weeks of treatment), urine was collected from individual mice, and the Urinary Albumin Creatinine Ratio (UACR, proteinuria) was determined for each animal as an indirect measure of kidney function. (FIG. 4B) Summary of mortality observed in this study for the highest and lowest dose groups. […] ([…]) Impact of treatment on anti-dsDNA titers after 17 weeks of dosing, at 46 weeks of age.
Mouse Lupus Disease Models.
Mouse lupus disease model strains. Female NZBWF1/J mice were purchased from Jackson Labs (Bar Harbor, Me.), both of which manifest with spontaneous lupus disease. Female DBA/1 mice were purchased from Harlan Laboratories (Indianapolis, Ind.) and at the indicated ages given an intraperitoneal injection of 0.5 ml pristane (2,6,10,14-Tetramethylpentadecane; Sigma, St. Louis, Mo.) to chemically induce lupus disease or of 0.5 ml PBS to generate age-matched, non-diseased control mice.
Female NZBWF1/J mice were received at 5 weeks of age, baseline bleeds were performed, and mice were monitored for disease progression by following anti-dsDNA titers. At 27 weeks of age, mice were randomized into groups with equivalent median anti-dsDNA titers and treated at 29 weeks of age with Vehicle (Veh; 0.5% methyl-cellulose) alone or 33, 100, or 300 mg/kg once-a-day orally (QD PO). At 46 weeks of age after 17 weeks of treatment, mice were bled and tested for anti-dsDNA titers. All mice were sacrificed at 50 weeks of age (21 weeks of compound treatment).
At the end of the experiment kidneys were collected from the animals tested in FIG. 2A through 2C, fixed in 10% formalin for 24 hours, embedded in paraffin, and H&E stained sections were generated for histopathology assessment in a blinded fashion (Grade 0/1+: WNL to minimal; Grade 2: Mild; Grade 3: Moderate to Marked; Grade 4: Severe).
Assessment of auto-antibody titers by ELISA. Anti-dsDNA, -Sm/nRNP, -RiboP, and -Histone titers were evaluated by standard ELISA approach. Briefly, 96-well EIA/RIA ELISA plates (Corning) were coated with 100 ul of diluted antigen in PBS for 90 minutes at room temperature as follows (final concentrations indicated): 10 U/ml Sm/nRNP complex (Immunovision), 10 ug/ml calf thymus dsDNA (Sigma), 5 U/ml RiboP (Immunovision), and 5 ug/ml Histone (Immunovision). Plates were washed with PBS/0.05% Tween20 (washing buffer) and blocked overnight with PBS/1% BSA (blocking buffer) at 4° C. […]

[1] = several doses between 33 and 300 mg/kg

SMILES	mortality	impact on anti-dsDNA titers	proteinuria (UACR) [1]	survival [1]	% combined incidence of Grade 3 and 4 (33 mpk) [%]	Number of mice with GN Score 0 (33 mpk QD PO, kidney histopathology, Grade 0/1+: WNL to minimal)	Number of mice with GN Score 2+ (33 mpk, Grade 2: Mild)	Number of mice with GN Score 3+ (33 mpk, Grade 3: Moderate to Marked)	Number of mice with GN Score 4+ (33 mpk, Grade 4: Severe)	% combined incidence of Grade 3 and 4 (100 mpk) [%]	Number of mice with GN Score 0 (100 mpk)	Number of mice with GN Score 2+ (100 mpk)	Number of mice with GN Score 3+ (100 mpk)	Number of mice with GN Score 4+ (100 mpk)	% combined incidence of Grade 3 and 4 (300 mpk) [%]	Number of mice with GN Score 0 (300 mpk)	Number of mice with GN Score 2+ (300 mpk)	Number of mice with GN Score 3+ (300 mpk)	Number of mice with GN Score 4+ (300 mpk)	histological signs of glomerulonephritis [1]
C[C@@H]1CN(c2ccc(C#N)c3ncccc23)C[C@H](C(=O)NC2CCN(C)CC2)O1 [ER-899464, (2R,6R)-4-(8-cyanoquinolin-5-yl)-6-methyl-N-(1-methylpiperidin-4-yl)morpholine-2-carboxamide]	No mortality was seen in the middle dose group	No statistically significant effect was observed	significantly reduced proteinuria	significant survival benefit																
C[C@@H]1CN(c2ccc(C#N)c3ncccc23)C[C@H](C(=O)N[C@H]2CNC[C@H]2F)O1.Cl [ER-899742, (2R,6R)-4-(8-cyanoquinolin-5-yl)-N-[(3S,4R)-4-fluoropyrrolidin-3-yl]-6-methylmorpholine-2-carboxamide hydrochloride]	No mortality was seen with compound treatment	No statistically significant effect was observed	significantly reduced proteinuria	pronounced survival benefit	11	11	5	1	1	6	15	1	1	0	11	9	7	0	2	significantly reduced
